# Experimental data reported in US20060226082A1, “Methods for substrate and modulator screening using enzyme-reactor chromatography/tandem mass spectrometry” (McMaster University, priority 2005, published 2006).
# “Also recorded” adds a separate entry of the source.
# Key:
# [1] = molecular target: T1, adenosine deaminase (ADA, Type V, EC 3.5.4.4) entrapped in monolithic silica column (Bos taurus, UniProt P56658); assay: ADA enzyme reactor/MS quantitative determination of IC50, KI and Km; type: biochemical, bovine; settings: for effect on ADA activity (substrate and product signals, P/S ratio): test compounds increased stepwise from 0 to 1000 nM, adenosine constant at 62.5 μM, 2 mM ammonium acetate; for IC50: IC50 [EHNA]
# T1 construct: Adenosine deaminase (ADA, Type V, from bovine intestine, EC 3.5.4.4); purchased Sigma-Aldrich (Oakville, Ontario, Canada) Type V (catalogue number not given); host or cells: bovine intestine (tissue-derived)
# T1 sequence (P56658 1-363): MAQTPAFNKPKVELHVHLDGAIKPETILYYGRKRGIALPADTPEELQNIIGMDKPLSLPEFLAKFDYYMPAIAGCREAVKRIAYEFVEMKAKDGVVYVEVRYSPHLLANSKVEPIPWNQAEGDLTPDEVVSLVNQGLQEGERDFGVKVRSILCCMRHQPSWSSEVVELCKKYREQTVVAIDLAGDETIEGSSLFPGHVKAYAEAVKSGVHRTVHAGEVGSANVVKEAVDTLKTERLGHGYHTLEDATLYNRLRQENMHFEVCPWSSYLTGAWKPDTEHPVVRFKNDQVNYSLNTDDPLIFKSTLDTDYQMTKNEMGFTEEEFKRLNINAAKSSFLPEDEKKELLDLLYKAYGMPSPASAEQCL
# Description: In an embodiment of the invention, if the P/S ratio is altered in favour of the substrate, then at least one of the one or more test compounds is an inhibitor of the protein. By altering the ratio of the flow between substrate and test compound channels, one can alter the compound concentrations and, thereby, obtain full inhibition curves. IC50 values are obtained by altering the flow in the substrate and substrate+inhibitor(s) channel in a stepwise fashion, thus allowing for variation of inhibitor concentration with constant substrate concentration. […] KI values are determined by extrapolation of IC50 values obtained at different substrate concentrations to the point of zero substrate concentration as per the equation: [formula] […] Note that for the enzyme reactor column, product concentration, rather than reaction rate, is monitored. Thus, the equation is valid only under conditions where the initial rate is proportional to product concentration. In the present system, it is assumed that this holds for conversion rates of 30% or less.
# To assess the enzyme-reactor chromatography/tandem MS method for inhibitor screening, monolithic silica columns containing entrapped adenosine deaminase (ADA, EC 3.5.4.4) and Factor Xa were formed according to previously described methods.^25 ADA was used as the model enzyme owing to the relevance of this protein in immune disorders,^19 and because there are currently no high-throughput screening methods for this enzyme. An Eksigent nanoLC system was used to continuously infuse liquid through the column (10 μL/min total flowrate), with one channel containing adenosine (Pump A) and another containing adenosine plus 1 μM test compound(s) (Pump B), with all species present in 2 mM ammonium acetate buffer (FIG. 1, bottom).
# (§1) Columns were fabricated in a fashion similar to that described previously.^25 ADA was exhaustively dialyzed against a solution containing 5 mM Bis-Tris.HCl, pH 6.5, with 10% (v/v) glycerol to remove all traces of phosphate buffer and adjust the pH. 40 mL of the resultant 40 mM ADA solution was then mixed with 20 mL of a solution containing 0.5 mM Bis-Tris.HCl, pH 6.5 with 50% (v/v) glycerol. DGS based sols were prepared by sonicating DGS with water (1 g+1 mL) at 0° C. for 15 min to hydrolyze the monomer, followed by filtration through a 0.2 mm filter. 100 mL of the resulting sol was rapidly mixed with the 60 mL ADA solution prepared above, followed by the rapid addition of 40 mL of 40% (w/v) poly(ethylene glycol) in water. The sol solution was then injected into an 80 cm length of 250 mm i.d., 360 mm o.d., polyimide coated fused silica tubing that was previously cleaned using 1 M NaOH. The liquid sol must be completely mixed, injected and stationary within the capillary by the time phase separation occurs, ˜2 minutes after mixing. After gelation (˜3 min), capillaries were looped such that both ends could be submerged in 50 mM Bis-Tris.HCl pH 6.5 and secured for storage. Columns were aged for a minimum of 5 days to achieve a relatively stable internal structure. After aging, 10 cm column segments were cut from poured columns, as required.
# A 2 channel, Eksigent nanoLC pump was used for mobile phase delivery to a MDS Sciex Q-Trap Mass Spectrometer. Note that the Eksigent pump uses direct pneumatic pumping of mobile phase at μL/min rates, with no flow splitting. An Eksigent AS-1 48 vial autosampler was fitted with a 250 μL withdrawal syringe and a 150 μL loop of 250 μm i.d. fused silica tubing. Thus, only small volumes of inhibitor solutions (˜400 μL) are required for screening, although larger volumes can be loaded directly into the Eksigent pump reservoir (1-5 mL depending on configuration) for determination of IC50 values. […] Mobile phases were run directly into the MS system, without the introduction of an organic “make-up flow”. Mass spectrometer control and data acquisition was done using Analyst v.1.4 software.
# [2] = molecular target: T2, adenosine deaminase (ADA) (Homo sapiens, UniProt P00813); settings: literature value; read-out: published KI value; cited from earlier work
# T2 sequence (P00813 1-363): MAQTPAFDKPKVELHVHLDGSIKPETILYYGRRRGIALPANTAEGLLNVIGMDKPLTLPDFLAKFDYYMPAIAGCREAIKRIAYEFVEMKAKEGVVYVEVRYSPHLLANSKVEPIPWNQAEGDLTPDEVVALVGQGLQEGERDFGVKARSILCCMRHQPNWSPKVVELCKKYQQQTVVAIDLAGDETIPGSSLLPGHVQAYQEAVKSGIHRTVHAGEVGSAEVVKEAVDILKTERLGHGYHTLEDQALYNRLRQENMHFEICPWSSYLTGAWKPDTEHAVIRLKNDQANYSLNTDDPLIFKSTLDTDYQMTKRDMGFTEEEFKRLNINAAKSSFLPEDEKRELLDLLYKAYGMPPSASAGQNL
# [3] = molecular target: T1, adenosine deaminase (ADA, Type V, EC 3.5.4.4) entrapped in monolithic silica column; assay: ADA enzyme reactor/MS mixture screening (primary and secondary screen); type: biochemical, bovine; settings: each compound individually, 500 nM and 10 μM, 200 μM adenosine
# Experimental: as §1, with “required. […]” for “required.”
Structure (SMILES),"effect on ADA activity (substrate and product signals, P/S ratio) [1]",Vmax ([1]; Michaelis-Menten analysis of inosine production rate (FIG. 6b)),Ki [1],"IC50 ([1]; EHNA alone (closed circles, FIG. 8A))","IC50 ([1]; EHNA in a mixture (open circles, FIG. 8A))",Ki [2],ADA inhibition in secondary screen (individual compounds of active mixture) [3]
Nc1nc2ncc(CNc3ccc(C(=O)N[C@@H](CCC(=O)O)C(=O)O)cc3)nc2c(=O)[nH]1 [folic acid],no significant effect,–,–,–,–,–,–
Nc1ncnc2c1ncn2[C@@H]1O[C@H](CO)[C@@H](O)[C@H]1O [adenosine],–,734 pmole/min/column,–,–,–,–,–
"CCCCCCC(C(C)O)n1cnc2c(N)ncnc21 (stereo not drawn) [EHNA, erythro-9-(2-hydroxy-3-nonyl)adenine]",concentration-dependent decrease in product and increase in substrate signals; also recorded: concentration-dependent decrease in ADA activity,–,15.7 ± 3.5 nM,29.4 nM,29.7 nM,6.5 nM,"active, inhibitory compound; also recorded: inhibitor of ADA"
